IC50 data for eleven compounds are collected here from patent US9334267B2, “RAF inhibitor compounds” (Deciphera Pharmaceuticals, LLC, priority 2012, dated 2016).

The target in assay [1] is T1, human wild type C-Raf (Homo sapiens, UniProt P04049).
T1 construct: made in house
The assay can be described thus: Enzymatic assay of C-Raf kinase activity (Raf/MEK1 ATPase, coupled PK/LDH, A340). The settings on record: read-out: Enzyme IC50, nM C-Raf. Format: biochemical. The method, then:
Test compounds are evaluated for their inhibitory activities against one or more of human wild type B-Raf, human wild type C-Raf, human B-Raf V600E, human B-Raf V600E+T529I or human B-Raf V600E+G468A. T529I is a threonine to isoleucine B-Raf gatekeeper mutation and G468A is a B-Raf secondary mutation at G1403C in exon 11. The enzymatic assays of B-Raf, C-Raf and B-Raf mutations evaluate a property of Raf and MEK1 complex, which in the presence of ATP, catalyzes an enhanced ATP hydrolysis (Rominger, et al, Arch. Biochem. Biophys. 2007, 464: 130-137; US Patent Publication No. 2006/0211073). The ADP formed is monitored by the well-known coupled PK/LDH (pyruvate kinase/lactate dehydrogenase) system in the form of NADH oxidation, which can be monitored and detected spectrophotometrically by absorbance at 340 nm (A340; for principal of the method see Schindler et al, Science, 2000, 289: 1938-1942). Raf activated MEK1 ATPase activity is a property shared by all forms of Raf proteins.
Test compounds are evaluated for their inhibitory activities against one or more of wild type B-Raf, wild type C-Raf, B-Raf V600E, B-Raf V600E+T529I and B-Raf V600E+G468A. T529I is a B-Raf gatekeeper mutation and G468A is a B-Raf secondary mutation. The enzymatic assays of B-Raf, C-Raf and B-Raf mutations evaluate a property of Raf and MEK1 complex, which in the presence of ATP, catalyzes an enhanced ATP hydrolysis (Rominger, et al, Arch. Biochem. Biophys. 2007, 464: 130-137). The ADP formed is monitored by the well-known coupled PK/LDH (pyruvate kinase/lactate dehydrogenase) system in the form of NADH oxidation, which can be monitored and detected by absorbance at 340 nm (A340; for principal of the method see Schindler et al, Science, 2000, 289: 1938-1942). Raf activated MEK1 ATPase activity is a property shared by all forms of Raf proteins. In the B-Raf wild type enzymatic assay, the reaction mixture contains 1.2 nM B-Raf, 30 nM MEK1, 1000 uM ATP, 3.5 units (per 100 ul) of PK, 5 units (per 100 ul) of LDH, 1 mM phosphoenol pyruvate (PEP), and 280 uM of NADH. In the C-Raf assay, the reaction mixture contains 0.6 nM C-Raf, 26 nM MEK1, 2000 uM ATP, and the same amount of PK, LDH, PEP and NADH as above. In the B-Raf V600E assay, the reaction mixture contains […] B-Raf V600E, 26 nM MEK1, 200 uM ATP and the same amount of PK, LDH, PEP and NADH as above. In the B-RafV600E+T529I assay, the reaction mixture contains 6.2 nM B-Raf V600E+T529I, 30 nM MEK1, 200 uM ATP and the same amount of PK, LDH, PEP and NADH as above. In the B-Raf V600E+G468A assay, the reaction mixture contains 3.5 nM B-Raf, 30 nM MEK1, 200 uM ATP and the same amount of PK, LDH, PEP and NADH as above. All assays are started by mixing the above mixture with test compound and monitoring at A340 continuously for approximately 5 hr. […] In the aforementioned assays, the enzyme constructs can be screened prior to or after cleavage of the N-terminal purification tag.

Assay [2] relates to HT-29 cells. The assay can be described thus: HT-29 cell proliferation assay (resazurin). The settings on record: Homo sapiens, V600E mutation, read-out: Cell Proliferation Inhibition IC50, nM HT-29. Format: cell-based. The method, then: (§1) HT-29 cells (catalog #HTB-38) are obtained from the American Type Culture Collection (ATCC, Manassas, Va.). Briefly, cells are grown in McCoy's 5A supplemented with 10% characterized fetal bovine serum (Invitrogen, Carlsbad, Calif.), and 1% Penicillin/Streptomycin/L-Glutamine at 37 degrees Celsius, 5% CO2, and 95% humidity. Cells are allowed to expand until reaching 75-90% confluency at which point they are subcultured or harvested for assay use. A serial dilution of test compound is dispensed into a 384-well black clear bottom plate in triplicate. One thousand two-hundred fifty cells are added per well in 50 μL complete growth medium in the 384-well plate. Plates are incubated for 67 hours at 37 degrees Celsius, 5% CO2, and 95% humidity. At the end of the incubation period, 10 μL of a 440 μM solution of resazurin (Sigma, St. Louis, Mo.) in PBS is added to each well of the plate and plates are incubated for an additional 5 hours at 37 degrees Celsius, 5% CO2, and 95% humidity. Plates are read on a Synergy2 reader (Biotek, Winooski, Vt.) using an excitation of 540 nm and an emission of 600 nm. Data is analyzed using Prism software (Graphpad, San Diego, Calif.) to calculate IC50 values.
(§2) The A375, HT-29, and Colo-205 cells (ATCC) harbor a V600E mutation.
Background: The colour change of resazurin is a common sign of viable cells or microbes.

Assay [3] concerns Colo205 cells. The assay can be described thus: Colo-205 cell proliferation assay (resazurin). Format: cell-based. The settings on record: Homo sapiens; Colo-205 cells, V600E mutation; read-out: Cell Proliferation Inhibition IC50, nM Colo-205. The procedure:
as §1, with “Colo205” for “HT-29”, “#HB-8307)” for “#HTB-38)”, “RPMI 1640” for “McCoy's 5A”, “Calif.), 1 mM sodium pyruvate,” for “Calif.),”, “30-60%” for “75-90%”
as §2

Assay [4] deals with HCT-116 cells. The assay can be described thus: HCT-116 cell proliferation assay (resazurin). Format: cell-based. The settings on record: Homo sapiens, K-Ras mutation B-Raf wild type, read-out: Cell Proliferation Inhibition IC50, nM HCT-116.
Assay [5] has as its system Sk-Mel-2 cells. In words: SK-Mel-2 cell proliferation assay (resazurin). Format: cell-based. To be noted: Homo sapiens, N-Ras mutation B-Raf wild type, read-out: Cell Proliferation Inhibition IC50, nM SK-Mel-2.

T1 sequence (P04049 whole entry): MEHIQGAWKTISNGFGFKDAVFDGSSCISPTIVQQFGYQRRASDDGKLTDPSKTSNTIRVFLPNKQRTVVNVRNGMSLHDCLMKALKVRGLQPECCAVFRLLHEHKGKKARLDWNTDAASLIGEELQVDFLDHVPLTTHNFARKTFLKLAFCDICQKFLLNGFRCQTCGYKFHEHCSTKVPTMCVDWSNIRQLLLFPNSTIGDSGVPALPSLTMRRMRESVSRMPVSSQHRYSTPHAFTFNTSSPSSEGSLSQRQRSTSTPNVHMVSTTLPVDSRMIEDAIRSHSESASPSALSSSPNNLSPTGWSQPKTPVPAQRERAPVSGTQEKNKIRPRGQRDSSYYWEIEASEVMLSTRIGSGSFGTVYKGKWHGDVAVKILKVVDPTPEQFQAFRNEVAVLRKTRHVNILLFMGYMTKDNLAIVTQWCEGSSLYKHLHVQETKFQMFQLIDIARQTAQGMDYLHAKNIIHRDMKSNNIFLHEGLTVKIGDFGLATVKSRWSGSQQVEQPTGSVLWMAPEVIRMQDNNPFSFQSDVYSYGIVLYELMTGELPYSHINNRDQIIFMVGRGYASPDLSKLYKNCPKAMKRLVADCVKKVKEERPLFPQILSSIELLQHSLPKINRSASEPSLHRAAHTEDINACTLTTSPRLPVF

For the compound `CNc1ncc2cc(-c3ccc(F)c(NC(=O)NCCC(C)(C)C#N)c3)c(C)nc2n1` [Example 13, 1-(3-Cyano-3-methylbutyl)-3-(2-fluoro-5-(7-methyl-2-(methylamino)pyrido[2,3-d]pyrimidin-6-yl)phenyl)urea], the IC50 was less than 150 nM in assay [1]; 100 to 1000 nM in assay [2]; 100 to 1000 nM in assay [3]; 1000 to 10000 nM in assay [4]; 100 to 1000 nM in assay [5].
Take `CNc1ncc2cc(-c3cc(NC(=O)NCCC(C)(C)OC)c(F)cc3C)c(C)nc2n1` [Example 14, 1-(2-Fluoro-4-methyl-5-(7-methyl-2-(methylamino)pyrido[2,3-d]pyrimidin-6-yl)phenyl)-3-(3-methoxy-3-methylbutyl)urea]: the IC50 in assay [1] is less than 150 nM; in assay [2], less than 100 nM; in assay [3] it was less than 100 nM; in assay [4], 100 to 1000 nM; in assay [5], 1000 to 10000 nM.
For the compound `CNc1ncc2cc(-c3cc(NC(=O)NCC(O)C(C)(C)C)c(F)cc3C)c(C)nc2n1` (stereo not shown) [Example 15, 1-[2-Fluoro-4-methyl-5-(7-methyl-2-methylamino-pyrido[2,3-d]pyrimidin-6-yl)phenyl]-3-(2-hydroxy-3,3-dimethyl-butyl)urea], the IC50 in assay [1] is less than 150 nM; in assay [2], less than 100 nM; in assay [3] it was less than 100 nM; in assay [4] it was 100 to 1000 nM; in assay [5], 100 to 1000 nM.
Regarding `Cc1cc(F)c(NC(=O)NCCC(C)(C)C)cc1-c1cc2cnc(NCCO)nc2nc1C` [Example 16, 1-(3,3-Dimethylbutyl)-3-[2-fluoro-5-[2-(2-hydroxyethylamino)-7-methyl-pyrido[2,3-d]pyrimidin-6-yl]-4-methyl-phenyl]urea], the IC50 in assay [1] is less than 150 nM; in assay [2] it was less than 100 nM; in assay [3] it was less than 100 nM; in assay [4] it was 100 to 1000 nM; in assay [5], 100 to 1000 nM.
Consider `Cc1cc(F)c(NC(=O)NCCC(C)(C)C)cc1-c1cc2cnc(NCCN(C)C)nc2nc1C` [Example 17, 1-[5-[2-(2-Dimethylaminoethylamino)-7-methyl-pyrido[2,3-d]pyrimidin-6-yl]-2-fluoro-4-methyl-phenyl]-3-(3,3-dimethylbutyl)urea], for which the IC50 was less than 150 nM in assay [1]; less than 100 nM in assay [2]; less than 100 nM in assay [3]; 100 to 1000 nM in assay [4]; 100 to 1000 nM in assay [5].
As to `CNc1ncc2cc(-c3cc(NC(=O)NC[C@H](O)C(C)(C)C)c(F)cc3C)cnc2n1` [Example 18, 1-[2-Fluoro-4-methyl-5-(2-methylaminopyrido[2,3-d]pyrimidin-6-yl)phenyl]-3-[(2R)-2-hydroxy-3,3-dimethyl-butyl]urea], the IC50 in assay [1] was less than 150 nM; in assay [2] it was less than 100 nM; in assay [3], less than 100 nM; in assay [4], 100 to 1000 nM; in assay [5], 100 to 1000 nM.
For `CNc1ncc2cc(-c3cc(NC(=O)NC[C@@H](O)C(C)(C)C)c(F)cc3C)cnc2n1` [Example 19, 1-[2-fluoro-4-methyl-5-(2-methylaminopyrido[2,3-d]pyrimidin-6-yl)phenyl]-3-[(2S)-2-hydroxy-3,3-dimethyl-butyl]urea], the IC50 in assay [1] was less than 150 nM; in assay [2], 100 to 1000 nM; in assay [3], 100 to 1000 nM; in assay [4] it was 1000 to 10000 nM; in assay [5] it was 100 to 1000 nM.
Take `Cc1cc(F)c(NC(=O)NCCC(C)(C)C)cc1-c1cc2cnc(N)nc2nc1C` [Example 20, 1-(5-(2-Amino-7-methylpyrido[2,3-d]pyrimidin-6-yl)-2-fluoro-4-methylphenyl)-3-(3,3-dimethylbutyl)urea]: the IC50 in assay [1] was less than 150 nM; in assay [2] it was less than 100 nM; in assay [3] it was less than 100 nM; in assay [4], 100 to 1000 nM; in assay [5], less than 100 nM.
Consider `Cc1cc(F)c(NC(=O)NCCC(C)(C)C)cc1-c1cc2cnc(NCCN3CCOCC3)nc2nc1C` [Example 21, 1-(3,3-Dimethylbutyl)-3-(2-fluoro-4-methyl-5-(7-methyl-2-((2-morpholinoethyl)amino)pyrido[2,3-d]pyrimidin-6-yl)phenyl)ure], for which the IC50 is less than 150 nM in assay [1]; less than 100 nM in assay [2]; less than 100 nM in assay [3]; 100 to 1000 nM in assay [4]; 100 to 1000 nM in assay [5].
On to `Cc1cc(F)c(NC(=O)NCCC(C)(C)C)cc1-c1cc2cnc(NCc3cn(C)cn3)nc2nc1C` [Example 22, 1-(3,3-Dimethylbutyl)-3-(2-fluoro-4-methyl-5-(7-methyl-2-(((1-methyl-1H-imidazol-4-yl)methyl)amino)pyrido[2,3-d]pyrimidin-6-yl)phenyl)urea], for which the IC50 in assay [1] was less than 150 nM; in assay [2], less than 100 nM; in assay [3] it was less than 100 nM; in assay [4] it was 100 to 1000 nM; in assay [5] it was 100 to 1000 nM.
For `Cc1cc(F)c(NC(=O)NCCC2(C)CC2)cc1-c1cc2cnc(N)nc2nc1C` [Example 23, 1-(5-(2-Amino-7-methylpyrido[2,3-d]pyrimidin-6-yl)-2-fluoro-4-methylphenyl)-3-(2-(1-methylcyclopropyl)ethyl)urea], the IC50 in assay [1] was less than 150 nM; in assay [2], less than 100 nM; in assay [3], less than 100 nM; in assay [4] it was 100 to 1000 nM; in assay [5] it was 100 to 1000 nM.
